According to patent US6339042B1, “Herbicidal N-cyclohexadienyl heteroaryloxyacetamides” (American Cyanamid Co., priority 1999, dated 2002):

Columns and labels:
Settings in all cases: three weeks after treatment
Amaranthus tuberculatus [1] = assay: Post-emergence herbicidal evaluation, AMATA; format: in vivo
Oryza sativum [2] = assay: Post-emergence herbicidal evaluation, ORYSA
Galium aparine [3] = assay: Pre-emergence herbicidal evaluation, GALAP; format: in vivo
From the text: (§1) The treated pots are then placed on greenhouse benches, watered and cared for in accordance with conventional greenhouse procedures.

Apera spica venti [4] = assay: Post-emergence herbicidal evaluation, APESV
Glycine max [5] = assay: Pre-emergence herbicidal evaluation, GLXMA; format: in vivo
From the text: as §1

Zea mays [6] = assay: Post-emergence herbicidal evaluation, ZEAMX
Method: (§2) Each pot is examined three weeks after treatment and phytotoxicity is assessed according to the rating system set forth below.
(§3) These acetone solutions are diluted with water and the resulting formulations applied at dosage levels equivalent of about 0.4 to 0.1 kg per hectare of test compound per pot. After spraying the plants are placed on greenhouse benches and are cared for in the usual manner, commensurate with conventional greenhouse practices.

Setaria viridis [7] = assay: Pre-emergence herbicidal evaluation, SETVI; format: in vivo
From the text: as §1

Galium aparine [8] = assay: Post-emergence herbicidal evaluation, GALAP
Glycine max [9] = assay: Post-emergence herbicidal evaluation, GLXMA
Echinochloa crus-galli [10] = assay: Post-emergence herbicidal evaluation, ECHCG
Triticum aestivum [11] = assay: Pre-emergence herbicidal evaluation, TRZAW; format: in vivo
From the text: as §1

Apera spica venti [12] = assay: Pre-emergence herbicidal evaluation, APESV; format: in vivo
From the text: as §1

Lolium perenne [13] = assay: Post-emergence herbicidal evaluation, LOLPE
Hordeum vulgare [14] = assay: Post-emergence herbicidal evaluation, HORVW
Triticum aestivum [15] = assay: Post-emergence herbicidal evaluation, TRZAW
Method: as §2, §3

Setaria viridis [16] = assay: Post-emergence herbicidal evaluation, SETVI
Alopecurus myosuroides [17] = assay: Pre-emergence herbicidal evaluation, ALOMY; format: in vivo
From the text: as §1

Oryza sativum [18] = assay: Pre-emergence herbicidal evaluation, ORYSA; format: in vivo
From the text: as §1

Alopecurus myosuroides [19] = assay: Post-emergence herbicidal evaluation, ALOMY
Echinochloa crus-galli [20] = assay: Pre-emergence herbicidal evaluation, ECHCG; format: in vivo
From the text: as §1

Hordeum vulgare [21] = assay: Pre-emergence herbicidal evaluation, HORVW; format: in vivo
From the text: as §1

Amaranthus tuberculatus [22] = assay: Pre-emergence herbicidal evaluation, AMATA; format: in vivo
From the text: as §1

Lolium perenne [23] = assay: Pre-emergence herbicidal evaluation, LOLPE; format: in vivo
From the text: as §1

Zea mays [24] = assay: Pre-emergence herbicidal evaluation, ZEAMX; format: in vivo
From the text: as §1

## CCN(C(=O)COc1nc2ccccc2o1)C1=CC(C)(C)CC(C)=C1 [Example 2]
Amaranthus tuberculatus [1]; 0.100 kg/ha
  phytotoxicity rating AMATA: 5 (5 - Definite injury)
Amaranthus tuberculatus [1]; 0.200 kg/ha
  phytotoxicity rating AMATA: 6 (6 - Herbicidal effect)
Amaranthus tuberculatus [1]; 0.400 kg/ha
  phytotoxicity rating AMATA: 6 (6 - Herbicidal effect)
Oryza sativum [2]; 0.100 kg/ha
  phytotoxicity rating ORYSA: 0 (0 - No effect)
Oryza sativum [2]; 0.200 kg/ha
  phytotoxicity rating ORYSA: 0 (0 - No effect)
Oryza sativum [2]; 0.400 kg/ha
  phytotoxicity rating ORYSA: 1 (1 - Trace effect)
Galium aparine [3]; 0.100 kg/ha
  phytotoxicity rating GALAP: 0 (0 - No effect)
Galium aparine [3]; 0.200 kg/ha
  phytotoxicity rating GALAP: 0 (0 - No effect)
Galium aparine [3]; 0.400 kg/ha
  phytotoxicity rating GALAP: 0 (0 - No effect)
Galium aparine [3]; 0.800 kg/ha
  phytotoxicity rating GALAP: 0 (0 - No effect)
Apera spica venti [4]; 0.100 kg/ha
  phytotoxicity rating APESV: 6 (6 - Herbicidal effect)
Apera spica venti [4]; 0.200 kg/ha
  phytotoxicity rating APESV: 7 (7 - Good herbicidal effect)
Apera spica venti [4]; 0.400 kg/ha
  phytotoxicity rating APESV: 7 (7 - Good herbicidal effect)
Glycine max [5]; 0.100 kg/ha
  phytotoxicity rating GLXMA: 0 (0 - No effect)
Glycine max [5]; 0.200 kg/ha
  phytotoxicity rating GLXMA: 0 (0 - No effect)
Glycine max [5]; 0.400 kg/ha
  phytotoxicity rating GLXMA: 0 (0 - No effect)
Glycine max [5]; 0.800 kg/ha
  phytotoxicity rating GLXMA: 0 (0 - No effect)
Zea mays [6]; 0.100 kg/ha
  phytotoxicity rating ZEAMX: 0 (0 - No effect)
Zea mays [6]; 0.200 kg/ha
  phytotoxicity rating ZEAMX: 0 (0 - No effect)
Zea mays [6]; 0.400 kg/ha
  phytotoxicity rating ZEAMX: 0 (0 - No effect)
Setaria viridis [7]; 0.100 kg/ha
  phytotoxicity rating SETVI: 1 (1 - Trace effect)
Setaria viridis [7]; 0.200 kg/ha
  phytotoxicity rating SETVI: 4 (4 - Injury)
Setaria viridis [7]; 0.400 kg/ha
  phytotoxicity rating SETVI: 7 (7 - Good herbicidal effect)
Setaria viridis [7]; 0.800 kg/ha
  phytotoxicity rating SETVI: 8 (8 - Approaching complete kill)
Galium aparine [8]; 0.100 kg/ha
  phytotoxicity rating GALAP: 0 (0 - No effect)
Galium aparine [8]; 0.200 kg/ha
  phytotoxicity rating GALAP: 2 (2 - Slight effect)
Galium aparine [8]; 0.400 kg/ha
  phytotoxicity rating GALAP: 3 (3 - Moderate effect)
Glycine max [9]; 0.100 kg/ha
  phytotoxicity rating GLXMA: 5 (5 - Definite injury)
Glycine max [9]; 0.200 kg/ha
  phytotoxicity rating GLXMA: 7 (7 - Good herbicidal effect)
Glycine max [9]; 0.400 kg/ha
  phytotoxicity rating GLXMA: 7 (7 - Good herbicidal effect)
Echinochloa crus-galli [10]; 0.100 kg/ha
  phytotoxicity rating ECHCG: 1 (1 - Trace effect)
Echinochloa crus-galli [10]; 0.200 kg/ha
  phytotoxicity rating ECHCG: 2 (2 - Slight effect)
Echinochloa crus-galli [10]; 0.400 kg/ha
  phytotoxicity rating ECHCG: 8 (8 - Approaching complete kill)
Triticum aestivum [11]; 0.100 kg/ha
  phytotoxicity rating TRZAW: 0 (0 - No effect)
Triticum aestivum [11]; 0.200 kg/ha
  phytotoxicity rating TRZAW: 0 (0 - No effect)
Triticum aestivum [11]; 0.400 kg/ha
  phytotoxicity rating TRZAW: 2 (2 - Slight effect)
Triticum aestivum [11]; 0.800 kg/ha
  phytotoxicity rating TRZAW: 2 (2 - Slight effect)
Apera spica venti [12]; 0.100 kg/ha
  phytotoxicity rating APESV: 1 (1 - Trace effect)
Apera spica venti [12]; 0.200 kg/ha
  phytotoxicity rating APESV: 6 (6 - Herbicidal effect)
Apera spica venti [12]; 0.400 kg/ha
  phytotoxicity rating APESV: 9 (9 - Complete kill)
Apera spica venti [12]; 0.800 kg/ha
  phytotoxicity rating APESV: 9 (9 - Complete kill)
Lolium perenne [13]; 0.100 kg/ha
  phytotoxicity rating LOLPE: 5 (5 - Definite injury)
Lolium perenne [13]; 0.200 kg/ha
  phytotoxicity rating LOLPE: 7 (7 - Good herbicidal effect)
Lolium perenne [13]; 0.400 kg/ha
  phytotoxicity rating LOLPE: 8 (8 - Approaching complete kill)
Hordeum vulgare [14]; 0.100 kg/ha
  phytotoxicity rating HORVW: 1 (1 - Trace effect)
Hordeum vulgare [14]; 0.200 kg/ha
  phytotoxicity rating HORVW: 2 (2 - Slight effect)
Hordeum vulgare [14]; 0.400 kg/ha
  phytotoxicity rating HORVW: 2 (2 - Slight effect)
Triticum aestivum [15]; 0.100 kg/ha
  phytotoxicity rating TRZAW: 0 (0 - No effect)
Triticum aestivum [15]; 0.200 kg/ha
  phytotoxicity rating TRZAW: 0 (0 - No effect)
Triticum aestivum [15]; 0.400 kg/ha
  phytotoxicity rating TRZAW: 1 (1 - Trace effect)
Setaria viridis [16]; 0.100 kg/ha
  phytotoxicity rating SETVI: 0 (0 - No effect)
Setaria viridis [16]; 0.200 kg/ha
  phytotoxicity rating SETVI: 2 (2 - Slight effect)
Setaria viridis [16]; 0.400 kg/ha
  phytotoxicity rating SETVI: 6 (6 - Herbicidal effect)
Alopecurus myosuroides [17]; 0.100 kg/ha
  phytotoxicity rating ALOMY: 1 (1 - Trace effect)
Alopecurus myosuroides [17]; 0.200 kg/ha
  phytotoxicity rating ALOMY: 5 (5 - Definite injury)
Alopecurus myosuroides [17]; 0.400 kg/ha
  phytotoxicity rating ALOMY: 6 (6 - Herbicidal effect)
Alopecurus myosuroides [17]; 0.800 kg/ha
  phytotoxicity rating ALOMY: 6 (6 - Herbicidal effect)
Oryza sativum [18]; 0.100 kg/ha
  phytotoxicity rating ORYSA: 0 (0 - No effect)
Oryza sativum [18]; 0.200 kg/ha
  phytotoxicity rating ORYSA: 0 (0 - No effect)
Oryza sativum [18]; 0.400 kg/ha
  phytotoxicity rating ORYSA: 0 (0 - No effect)
Oryza sativum [18]; 0.800 kg/ha
  phytotoxicity rating ORYSA: 2 (2 - Slight effect)
Alopecurus myosuroides [19]; 0.100 kg/ha
  phytotoxicity rating ALOMY: 0 (0 - No effect)
Alopecurus myosuroides [19]; 0.200 kg/ha
  phytotoxicity rating ALOMY: 4 (4 - Injury)
Alopecurus myosuroides [19]; 0.400 kg/ha
  phytotoxicity rating ALOMY: 7 (7 - Good herbicidal effect)
Echinochloa crus-galli [20]; 0.100 kg/ha
  phytotoxicity rating ECHCG: 3 (3 - Moderate effect)
Echinochloa crus-galli [20]; 0.200 kg/ha
  phytotoxicity rating ECHCG: 5 (5 - Definite injury)
Echinochloa crus-galli [20]; 0.400 kg/ha
  phytotoxicity rating ECHCG: 8 (8 - Approaching complete kill)
Echinochloa crus-galli [20]; 0.800 kg/ha
  phytotoxicity rating ECHCG: 9 (9 - Complete kill)
Hordeum vulgare [21]; 0.100 kg/ha
  phytotoxicity rating HORVW: 0 (0 - No effect)
Hordeum vulgare [21]; 0.200 kg/ha
  phytotoxicity rating HORVW: 2 (2 - Slight effect)
Hordeum vulgare [21]; 0.400 kg/ha
  phytotoxicity rating HORVW: 2 (2 - Slight effect)
Hordeum vulgare [21]; 0.800 kg/ha
  phytotoxicity rating HORVW: 3 (3 - Moderate effect)
Amaranthus tuberculatus [22]; 0.100 kg/ha
  phytotoxicity rating AMATA: 2 (2 - Slight effect)
Amaranthus tuberculatus [22]; 0.200 kg/ha
  phytotoxicity rating AMATA: 6 (6 - Herbicidal effect)
Amaranthus tuberculatus [22]; 0.400 kg/ha
  phytotoxicity rating AMATA: 8 (8 - Approaching complete kill)
Amaranthus tuberculatus [22]; 0.800 kg/ha
  phytotoxicity rating AMATA: 8 (8 - Approaching complete kill)
Lolium perenne [23]; 0.100 kg/ha
  phytotoxicity rating LOLPE: 0 (0 - No effect)
Lolium perenne [23]; 0.200 kg/ha
  phytotoxicity rating LOLPE: 2 (2 - Slight effect)
Lolium perenne [23]; 0.400 kg/ha
  phytotoxicity rating LOLPE: 8 (8 - Approaching complete kill)
Lolium perenne [23]; 0.800 kg/ha
  phytotoxicity rating LOLPE: 9 (9 - Complete kill)
Zea mays [24]; 0.100 kg/ha
  phytotoxicity rating ZEAMX: 0 (0 - No effect)
Zea mays [24]; 0.200 kg/ha
  phytotoxicity rating ZEAMX: 0 (0 - No effect)
Zea mays [24]; 0.400 kg/ha
  phytotoxicity rating ZEAMX: 0 (0 - No effect)
Zea mays [24]; 0.800 kg/ha
  phytotoxicity rating ZEAMX: 1 (1 - Trace effect)
